Test results reported in patent US20220298163A1, “BTK INHIBITORS WITH IMPROVED DUAL SELECTIVITY” (BEIGENE, LTD., priority 2017, published 2022).

Legend:
EGFR = EGFR (Homo sapiens, UniProt P00533); assay: Biochemical kinase selectivity: IC50 determination of EGFR; conditions: for IC50: TR-FRET, 20 μM ATP; for Fold of EGFR/Btk: ratio of IC50 values
Tec = biological target: T1, Tec (Homo sapiens, UniProt P42680); assay: Biochemical kinase selectivity: IC50 determination of Tec; conditions: for IC50: TR-FRET, 280 μM ATP; for Fold of Tec/Btk: ratio of IC50 values
T1 sequence (P42680 1-631): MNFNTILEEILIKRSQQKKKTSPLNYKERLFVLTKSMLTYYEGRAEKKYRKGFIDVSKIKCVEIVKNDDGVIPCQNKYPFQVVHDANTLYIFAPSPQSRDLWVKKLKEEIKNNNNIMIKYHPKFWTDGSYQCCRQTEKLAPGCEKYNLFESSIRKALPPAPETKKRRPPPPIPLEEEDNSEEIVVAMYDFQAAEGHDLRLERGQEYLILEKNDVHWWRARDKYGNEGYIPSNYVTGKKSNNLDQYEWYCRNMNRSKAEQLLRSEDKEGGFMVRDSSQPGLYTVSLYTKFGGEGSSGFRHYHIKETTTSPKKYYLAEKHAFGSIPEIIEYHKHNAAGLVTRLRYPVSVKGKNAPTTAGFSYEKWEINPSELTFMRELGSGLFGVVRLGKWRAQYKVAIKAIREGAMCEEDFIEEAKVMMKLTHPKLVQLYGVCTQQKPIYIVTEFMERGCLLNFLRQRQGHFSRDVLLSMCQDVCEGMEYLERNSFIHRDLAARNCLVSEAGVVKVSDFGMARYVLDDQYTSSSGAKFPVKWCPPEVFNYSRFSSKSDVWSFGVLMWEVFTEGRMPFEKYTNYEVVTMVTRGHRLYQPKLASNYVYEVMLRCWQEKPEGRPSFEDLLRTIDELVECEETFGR

[1] = biological target: T2, phosphorylated Btk at Tyr223 (Homo sapiens, UniProt Q06187); assay: Btk pY223 cellular assay (HTRF, Ramos cells); format: cell-based; conditions: compound 3 hours, pervanadate or Na3VO4 stimulation, read-out: IC50 (nM) in cell Btk pY223
T2 construct: determine the endogenous levels of phosphorylated Btk at Tyr223; endogenous in cells; host or cells: Ramos cells (CRL-1596, ATCC)
T2 sequence (Q06187 whole entry): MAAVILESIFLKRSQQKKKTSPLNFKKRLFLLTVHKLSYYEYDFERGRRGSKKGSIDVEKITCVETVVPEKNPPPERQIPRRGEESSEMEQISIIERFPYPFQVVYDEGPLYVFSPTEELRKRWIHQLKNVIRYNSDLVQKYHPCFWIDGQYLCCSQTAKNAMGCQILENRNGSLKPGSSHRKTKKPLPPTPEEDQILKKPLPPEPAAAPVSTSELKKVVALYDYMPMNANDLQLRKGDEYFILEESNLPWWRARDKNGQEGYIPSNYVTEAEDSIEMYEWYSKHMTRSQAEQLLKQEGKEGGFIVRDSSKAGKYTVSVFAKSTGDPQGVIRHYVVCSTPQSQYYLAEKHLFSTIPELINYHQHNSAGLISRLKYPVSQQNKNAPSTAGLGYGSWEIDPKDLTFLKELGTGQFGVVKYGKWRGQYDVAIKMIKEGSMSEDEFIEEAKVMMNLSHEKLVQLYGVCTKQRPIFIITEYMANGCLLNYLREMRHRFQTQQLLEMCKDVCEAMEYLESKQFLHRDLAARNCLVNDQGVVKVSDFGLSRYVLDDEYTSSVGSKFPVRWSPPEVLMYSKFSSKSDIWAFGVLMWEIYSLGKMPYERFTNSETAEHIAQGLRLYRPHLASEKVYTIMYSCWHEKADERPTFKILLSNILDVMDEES

[2] = biological target: T3, Btk kinase (aa2-659, Carna Biosciences) (Homo sapiens, UniProt Q06187); assay: Btk kinase enzymatic assay (TR-FRET); format: biochemical; conditions: for IC50: TR-FRET, 30 μM ATP, compound incubated with kinase 60 minutes
T3 construct: purchased Carna Biosciences
T3 sequence (Q06187 2-659): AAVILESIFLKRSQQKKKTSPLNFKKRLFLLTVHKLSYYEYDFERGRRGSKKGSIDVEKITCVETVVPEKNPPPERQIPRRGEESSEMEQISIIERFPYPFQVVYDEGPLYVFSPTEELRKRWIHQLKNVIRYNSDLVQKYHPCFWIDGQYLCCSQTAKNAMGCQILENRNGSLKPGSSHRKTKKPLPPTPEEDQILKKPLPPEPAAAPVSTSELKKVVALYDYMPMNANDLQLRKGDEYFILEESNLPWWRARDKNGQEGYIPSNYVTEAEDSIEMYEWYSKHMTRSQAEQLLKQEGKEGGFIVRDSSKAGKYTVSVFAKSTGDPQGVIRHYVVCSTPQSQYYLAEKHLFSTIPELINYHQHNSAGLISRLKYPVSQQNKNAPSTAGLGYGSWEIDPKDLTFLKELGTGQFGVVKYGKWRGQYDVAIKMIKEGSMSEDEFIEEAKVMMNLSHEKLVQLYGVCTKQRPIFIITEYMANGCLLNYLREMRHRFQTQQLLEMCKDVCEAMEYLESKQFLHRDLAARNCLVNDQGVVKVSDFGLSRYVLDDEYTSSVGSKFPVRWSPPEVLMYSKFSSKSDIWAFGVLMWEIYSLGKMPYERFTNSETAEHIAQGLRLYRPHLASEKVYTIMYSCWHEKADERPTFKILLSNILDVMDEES

EGFR, sequence (P00533 25-1210): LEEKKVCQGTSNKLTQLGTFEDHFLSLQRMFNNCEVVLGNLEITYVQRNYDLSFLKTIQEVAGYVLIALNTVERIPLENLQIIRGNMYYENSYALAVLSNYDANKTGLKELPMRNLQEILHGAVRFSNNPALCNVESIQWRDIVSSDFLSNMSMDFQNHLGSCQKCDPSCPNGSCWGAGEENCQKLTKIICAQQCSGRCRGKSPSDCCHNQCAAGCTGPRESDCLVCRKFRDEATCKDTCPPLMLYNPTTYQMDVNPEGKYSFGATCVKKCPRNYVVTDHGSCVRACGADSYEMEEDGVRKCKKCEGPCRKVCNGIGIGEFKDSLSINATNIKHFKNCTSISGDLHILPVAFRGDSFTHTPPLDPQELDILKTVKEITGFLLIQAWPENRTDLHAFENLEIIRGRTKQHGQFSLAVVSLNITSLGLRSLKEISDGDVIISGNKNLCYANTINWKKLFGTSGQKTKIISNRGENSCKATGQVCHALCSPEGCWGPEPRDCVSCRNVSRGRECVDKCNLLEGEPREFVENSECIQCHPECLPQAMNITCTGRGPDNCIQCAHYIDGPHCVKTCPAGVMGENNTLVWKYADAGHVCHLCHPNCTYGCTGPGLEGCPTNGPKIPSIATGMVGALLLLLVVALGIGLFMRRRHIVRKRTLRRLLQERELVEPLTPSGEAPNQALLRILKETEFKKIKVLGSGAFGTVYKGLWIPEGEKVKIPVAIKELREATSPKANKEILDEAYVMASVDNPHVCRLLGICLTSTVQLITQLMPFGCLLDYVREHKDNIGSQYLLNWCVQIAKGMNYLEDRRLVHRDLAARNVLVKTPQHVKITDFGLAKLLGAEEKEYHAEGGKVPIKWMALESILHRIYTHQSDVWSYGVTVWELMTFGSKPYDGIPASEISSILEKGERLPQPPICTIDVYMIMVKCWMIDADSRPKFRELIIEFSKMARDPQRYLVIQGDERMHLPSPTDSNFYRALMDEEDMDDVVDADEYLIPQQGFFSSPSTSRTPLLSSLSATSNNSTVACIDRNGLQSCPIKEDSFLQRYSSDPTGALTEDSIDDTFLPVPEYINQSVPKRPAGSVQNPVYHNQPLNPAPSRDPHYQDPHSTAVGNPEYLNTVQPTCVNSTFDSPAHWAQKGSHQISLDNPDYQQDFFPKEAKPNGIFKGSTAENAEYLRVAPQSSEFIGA

SMILES | IC50 (EGFR) | IC50 (Tec) | IC50 [1] | Fold of EGFR/Btk (EGFR) | Fold of Tec/Btk (Tec) | affinity / inhibitory activity for Btk (in words) [2] | IC50 [2] | selectivity of Btk over Tec (in words) (Tec)
C=CC(=O)Nc1ccccc1C1CCNc2c(C(N)=O)c(-c3cc(Cl)c(OC)c(Cl)c3)nn21 (stereo not shown) [169^#] | 0.54 nM | 37 nM | 28.2 nM | – | – | – | – | –
C=CC(=O)Nc1ccccc1C1CCNc2c(C(N)=O)c(-c3cc(F)c(F)c(Cl)c3)nn21 (stereo not shown) [Example 158, reference compound] | 0.49 nM | 56 nM | – | 0.2 fold | 19 fold | – | – | –
C=CC(=O)N1CCC(C2CCNc3c(C(N)=O)c(-c4ccc(C)c(OC)c4)nn32)CC1 (stereo not shown) [Example 174, reference compound] | 281 nM | 64 nM | – | 58.5 fold | 13 fold | low affinity for Btk | – | almost no selectivity against Tec
C=CC(=O)N1CCC(C2CCNc3c(C(N)=O)c(-c4cc(Cl)c(C)c(Cl)c4)nn32)CC1 (stereo not shown) [Example A7, 7-(1-acryloylpiperidin-4-yl)-2-(3,5-dichloro-4-methylphenyl)-4,5,6,7-tetrahydropyrazolo[1,5-a]pyrimidine-3-carboxamide] | 1190 nM | 254 nM | 148 nM | 289 fold | 62 fold | – | 4.1 nM | –
C=CC(=O)N1CCC(C2CCNc3c(C(N)=O)c(-c4cc(Br)c(C)c(Br)c4)nn32)CC1 (stereo not shown) [Example A16, 7-(1-acryloylpiperidin-4-yl)-2-(3,5-dibromo-4-methylphenyl)-4,5,6,7-tetrahydropyrazolo[1,5-a]pyrimidine-3-carboxamide] | 2370 nM | 556 nM | – | 333 fold | 78 fold | – | 7.1 nM | –
C=CC(=O)N1CCC(C2CCNc3c(C(N)=O)c(-c4cc(C)c(Br)c(C)c4)nn32)CC1 (stereo not shown) [Example A20, 7-(1-acryloylpiperidin-4-yl)-2-(4-bromo-3,5-dimethylphenyl)-4,5,6,7-tetrahydropyrazolo[1,5-a]pyrimidine-3-carboxamide] | 496 nM | 352 nM | 143 nM | 150 fold | 107 fold | high affinity for Btk | 3.3 nM | –
C=CC(=O)N1CCC(C2CCNc3c(C(N)=O)c(-c4cc(OC)c(C5CC5)c(OCC)c4)nn32)CC1 (stereo not shown) [Example A33, 7-(1-acryloylpiperidin-4-yl)-2-(4-cyclopropyl-3-ethoxy-5-methoxyphenyl)-4,5,6,7-tetrahydropyrazolo[1,5-a]pyrimidine-3-carboxamide] | 9390 nM | 499 nM | 42.9 nM | 3479 fold | 185 fold | high affinity for Btk | 2.7 nM | –
C=CC(=O)N1CCC(C2CCNc3c(C(N)=O)c(-c4cc(C)c(C)c(OC)c4)nn32)CC1 (stereo not shown) [Example A34, 7-(1-acryloylpiperidin-4-yl)-2-(3-methoxy-4,5-dimethylphenyl)-4,5,6,7-tetrahydropyrazolo[1,5-a]pyrimidine-3-carboxamide] | 405 nM | 207 nM | 41.8 nM | 225 fold | 115 fold | high affinity for Btk | 1.8 nM | –
C=CC(=O)N1CCC(C2CCNc3c(C(N)=O)c(-c4cc(Cl)c(C)c(OC)c4)nn32)CC1 (stereo not shown) [Example A35, 7-(1-acryloylpiperidin-4-yl)-2-(3-chloro-5-methoxy-4-methylphenyl)-4,5,6,7-tetrahydropyrazolo[1,5-a]pyrimidine-3-carboxamide] | 1150 nM | 174 nM | 65 nM | 500 fold | 75.6 fold | – | 2.3 nM | –
C=CC(=O)N1CCC(C2CCNc3c(C(N)=O)c(-c4cc(OC)c(C5CCCCC5)c(OC)c4)nn32)CC1 (stereo not shown) [Example A39, 7-(1-acryloylpiperidin-4-yl)-2-(4-cyclohexyl-3,5-dimethoxyphenyl)-4,5,6,7-tetrahydropyrazolo[1,5-a]pyrimidine-3-carboxamide] | 6080 nM | 102 nM | – | 894 fold | 15 fold | – | 6.8 nM | –

The next lines start with results.

IC50 (EGFR) | IC50 (Tec) | IC50 [1] | Fold of EGFR/Btk (EGFR) | Fold of Tec/Btk (Tec) | affinity / inhibitory activity for Btk (in words) [2] | IC50 [2] | SMILES | selectivity of Btk over Tec (in words) (Tec)
1380 nM | 130 nM | 14.8 nM | – | – | – | 0.93 nM | C=CC(=O)N1CCC(C2CCNc3c(C(N)=O)c(-c4cc(OC)c(I)c(OC)c4)nn32)CC1 (stereo not shown) [Example A8, 7-(1-acryloylpiperidin-4-yl)-2-(4-iodo-3,5-dimethoxyphenyl)-4,5, tetrahydropyrazolo[1,5-a]pyrimidine-3-carboxamide] | –
> 10000 nM | 289 nM | 37.3 nM | – | 61 fold | – | 4.7 nM | C=CC(=O)N1CCC(C2CCNc3c(C(N)=O)c(-c4cc(OC)c(C)c(OCC)c4)nn32)CC1 (stereo not shown) [Example A12, 7-(1-acryloylpiperidin-4-yl)-2-(3-ethoxy-5-methoxy-4-methylphenyl)-4,5,6,7-tetrahydropyrazolo[1,5-a]pyrimidine-3-carboxamide] | –
> 10000 nM | 455 nM | – | – | 63.2 fold | – | 7.2 nM | C=CC(=O)N1CCC(C2CCNc3c(C(N)=O)c(-c4cc(OC)c(-c5ccco5)c(OC)c4)nn32)CC1 (stereo not shown) [Example A19, 7-(1-acryloylpiperidin-4-yl)-2-(4-(furan-2-yl)-3,5-dimethoxyphenyl)-4,5,6,7-tetrahydropyrazolo[1,5-a]pyrimidine-3-carboxamide] | –
2000 nM | 53 nM | – | 668 fold | 18 fold | – | 3 nM | C=CC(=O)N1CCC(C2CCNc3c(C(N)=O)c(-c4cc(OC)c(CCc5ccccc5)c(OC)c4)nn32)CC1 (stereo not shown) [Example A42, 7-(1-acryloylpiperidin-4-yl)-2-(3,5-dimethoxy-4-phenethylphenyl)-4,5,6,7-tetrahydropyrazolo[1,5-a]pyrimidine-3-carboxamide] | –
6180 nM | 39 nM | – | 909 fold | 5.7 fold | – | 6.8 nM | C=CC(=O)N1CCC(C2CCNc3c(C(N)=O)c(-c4cc(OC)c(C(=C)c5ccccc5)c(OC)c4)nn32)CC1 (stereo not shown) [Example A43, 7-(1-acryloylpiperidin-4-yl)-2-(3,5-dimethoxy-4-(1-phenylvinyl)phenyl)-4,5,6,7-tetrahydropyrazolo[1,5-a]pyrimidine-3-carboxamide] | –
3170 nM | 35 nM | – | 647 fold | 7.1 fold | – | 4.9 nM | C=CC(=O)N1CCC(C2CCNc3c(C(N)=O)c(-c4cc(OC)c(C(C)c5ccccc5)c(OC)c4)nn32)CC1 (stereo not shown) [Example A44, 7-(1-acryloylpiperidin-4-yl)-2-(3,5-dimethoxy-4-(1-phenylethyl)phenyl)-4,5,6,7-tetrahydropyrazolo[1,5-a]pyrimidine-3-carboxamide] | –
> 10000 nM | 362 nM | – | – | 82 fold | – | 4.4 nM | C=CC(=O)N1CCC(C2CCNc3c(C(N)=O)c(-c4cc(OC)c(C5CC5)c(OC(C)C)c4)nn32)CC1 (stereo not shown) [Example A45, 7-(1-acryloylpiperidin-4-yl)-2-(4-cyclopropyl-3-isopropoxy-5-methoxyphenyl)-4,5,6,7-tetrahydropyrazolo[1,5-a]pyrimidine-3-carboxamide] | –
